Data: patent US10786459B2, “Twin-screw dry granulation for producing solid formulations” (R. P. Scherer Technologies LLC, priority 2016, dated 2020)
Counter-ions that a name gives are not always drawn.

What was measured:
Assay type in all cases: physicochemical
[1] = Thermogravimetric analysis (TGA) of OND
Experimental: Thermogravimetric analysis (TGA) was used to determine weight loss of OND due to dehydration. A weighed sample of OND was heated from 25° C. to 300° C. at a rate of 20° C./min in a platinum pan under an inert nitrogen atmosphere purge flowing at a rate of 20 ml per minute. Heating caused loss of 2 moles of loosely bound water from each mole of OND dihydrate.

[2] = DSC/FTIR compatibility and crystallinity of OND (Example 3); settings: 1:1 ratio
Source text: Differential scanning calorimetry (Diamond DSC, Perkin Elmer Life and Analytical Sciences, 710 Bridgeport Ave., Conn., USA) equipped with Pyris manager software (Shelton, Conn., USA) and Fourier transform infrared spectroscopy (FTIR, Agilent Technologies Cary 660, Santa Clara, Calif.) were used to study the compatibility of OND with various polymeric carriers in 1:1 ratio in a dry granulation process carried out in a twin-screw extruder to provide granules used to produce extended release tablets. Samples were prepared by hermetically sealing approximately 3-5 mg of pure OND or powder mixture in aluminum pans, which were then heated over a temperature range of 40-250° C. at a linear heating rate of 10° C./min under an inert nitrogen atmosphere. An FTIR bench equipped with a […]® attenuated total reflection (Pike Technologies, Madison, Wis.) was used to generate mid-infrared spectra in the range of 4000-650 cm-1, which was fitted with a single bounce diamond coated ZnSe internal reflection element. […] Thus, the crystalline structure of OND was preserved in the granules.

[3] = Hot-stage microscopy (HSM) of OND; settings: heated 35 to 150 °C at 2 °C/min in silicone oil
Experimental: Hot-stage microscopy (HSM) was used to capture images at different stages of OND transformation. A glass slide with a sample of a small amount of OND dispersed in silicone oil was inserted into a hot-stage system (FTIR 600, Linkam Scientific Instruments, Surrey, UK). The OND sample was examined while being heated from 35° C. to 150° C. at a constant rate of 2° C./min. A camera-mounted optical microscope (Cary 620 IR, Agilent Technologies, Santa Clara, Calif., USA) equipped with a hot-stage was used to capture images at different stages of the OND transformation.

[4] = Dynamic vapor sorption (DVS) of OND; settings: 25 °C
Experimental: Dynamic vapor sorption (DVS) was then used to measure the weight loss of OND during an isotherm dehydration study. The DVS apparatus (Surface Measurement Systems, London, UK) was a commercially available water sorption apparatus, which allowed an OND sample to be weighed under defined temperature and humidity conditions. About 14 mg of OND was weighed onto an aluminum pan. The DVS apparatus was programmed to run from 0% to 90% relative humidity (RH) at increments of 10% RH and then again going from 90% back to 0% RH at decrements of 10% RH. The study was conducted at 25° C. and in triplicate. The accuracy of the DVS apparatus was ±1.0% for the RH and ±0.2° C. for the temperature.

Cc1nccn1CC1CCc2c(c3ccccc3n2C)C1=O (stereo not drawn) [OND, Ondansetron HCl dihydrate]
temperature range of dehydration event (TGA) ([1]; TGA thermogram): 60-105 °C
weight lost (TGA) ([1]; heated from 60-105 °C, 20 °C/min, nitrogen): about 10%
compatibility of OND with polymeric carriers [2]: compatible
temperature at which crystals started dehydration (HSM) [3]: 90 °C
weight gain (DVS) ([4]; RH increased beyond 20% up to 90%): 9.2%
weight gain (DVS) ([4]; RH increased from 0% to 10%): 2.67%
weight gain (DVS) ([4]; RH increased to 20%): 8.9%
weight loss (DVS) ([4]; at 0% RH): 9.5%
weight decrease (DVS) ([4]; desorption, at 10% RH): up to 4.44%
